Experimental data: US9765065B2, “Therapeutic substituted cyclopentanes” (ALLERGAN, INC., priority 2007, dated 2017)

How the values were obtained:
[1] = biological target: T1, EP4 (Homo sapiens, UniProt P35408); experiment: EP4 binding Ki
Source text: (§1) U.S. patent application Ser. No. 11/553,143, filed on Oct. 26, 2006, incorporated by reference herein in its entirety, describes the methods used to obtain the in vitro data in the table below.

[2] = biological target: T2, EP2 (Homo sapiens, UniProt P43116); experiment: EP2 cAMP; format: cell-based
T2 sequence (P43116 whole entry): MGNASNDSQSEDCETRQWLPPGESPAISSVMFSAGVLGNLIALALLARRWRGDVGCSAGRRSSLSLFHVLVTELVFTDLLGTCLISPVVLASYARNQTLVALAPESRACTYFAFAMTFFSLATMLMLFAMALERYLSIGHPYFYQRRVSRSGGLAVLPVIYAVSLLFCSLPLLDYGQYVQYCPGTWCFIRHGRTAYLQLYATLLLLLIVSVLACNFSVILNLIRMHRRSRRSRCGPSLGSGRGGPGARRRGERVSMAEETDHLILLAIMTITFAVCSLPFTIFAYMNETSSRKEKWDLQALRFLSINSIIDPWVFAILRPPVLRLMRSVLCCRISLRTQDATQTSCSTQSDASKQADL
Source text: as §1

[3] = biological target: T2, EP2; experiment: EP2 binding Ki
Source text: as §1

[4] = biological target: T3, hEP3A (Homo sapiens, UniProt P43115); experiment: Other receptors hEP3A; format: cell-based
T3 sequence (P43115 1-390): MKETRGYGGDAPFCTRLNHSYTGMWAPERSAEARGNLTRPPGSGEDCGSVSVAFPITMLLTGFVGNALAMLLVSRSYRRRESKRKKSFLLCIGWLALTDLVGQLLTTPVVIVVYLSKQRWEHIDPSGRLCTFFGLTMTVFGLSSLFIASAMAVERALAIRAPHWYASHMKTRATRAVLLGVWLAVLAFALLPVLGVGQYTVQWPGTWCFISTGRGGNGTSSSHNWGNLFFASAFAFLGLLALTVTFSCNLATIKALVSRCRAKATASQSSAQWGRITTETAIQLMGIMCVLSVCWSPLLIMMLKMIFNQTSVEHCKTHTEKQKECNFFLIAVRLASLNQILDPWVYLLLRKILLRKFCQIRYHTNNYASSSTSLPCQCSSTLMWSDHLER
Source text: as §1

[5] = biological target: T2, EP2; experiment: EP2 flipr; format: cell-based
Source text: as §1

[6] = biological target: T1, EP4; experiment: EP4 flipr; format: cell-based
Source text: as §1

T1 sequence (P35408 whole entry): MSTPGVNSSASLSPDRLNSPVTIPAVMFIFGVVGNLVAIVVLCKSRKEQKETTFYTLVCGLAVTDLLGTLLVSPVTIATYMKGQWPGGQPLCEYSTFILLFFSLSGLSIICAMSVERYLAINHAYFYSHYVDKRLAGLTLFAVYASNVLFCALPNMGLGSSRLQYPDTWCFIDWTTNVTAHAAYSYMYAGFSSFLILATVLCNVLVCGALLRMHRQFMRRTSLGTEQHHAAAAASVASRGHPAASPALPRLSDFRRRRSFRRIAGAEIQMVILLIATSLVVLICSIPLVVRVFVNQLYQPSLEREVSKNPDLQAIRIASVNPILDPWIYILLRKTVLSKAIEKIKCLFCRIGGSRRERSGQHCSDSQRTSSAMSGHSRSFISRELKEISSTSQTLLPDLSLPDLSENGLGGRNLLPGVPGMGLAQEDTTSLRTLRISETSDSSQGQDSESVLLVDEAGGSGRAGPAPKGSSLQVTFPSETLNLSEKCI

A Ki [1] of 700 nM, an EC50 [2] of 0.05 nM and a Ki [3] of 5 nM were found for `O=C(O)c1ccc(CCC[C@H]2C(=O)C[C@@H](O)[C@@H]2C#Cc2ccccc2)s1` [Example 17, 5-(3-((1R,2S,3R)-3-hydroxy-5-oxo-2-(phenylethynyl)cyclopentyl)propyl)thiophene-2-carboxylic acid] in this work. The EC50 [4] was 11000 nM, the EC50 [5] was 9 nM and the EC50 [6] was 33800 nM.

A Ki [1] of 1870 nM, an EC50 [2] of 3.3 nM and a Ki [3] of 64 nM were found for `O=C(O)c1ccc(CCC[C@@H]2[C@@H](C#Cc3ccsc3)[C@H](O)C[C@H]2Cl)s1` [Example 29, 5-(3-((1R,2S,3R,5R)-5-chloro-3-hydroxy-2-(thiophen-3-ylethynyl)cyclopentyl)propyl)thiophene-2-carboxylic acid] in this work. It also gave an EC50 [6] of 5910 nM.

An EC50 [2] of 4 nM, a Ki [3] of 41 nM and an EC50 [5] of 107 nM were found for `O=C(O)c1ccc(CCC[C@@H]2[C@@H](C#Cc3ccccc3)[C@H](O)C[C@H]2C(F)(F)F)s1` (single isomer, unassigned) [Example 24] in this work.

An EC50 [2] of 3 nM, a Ki [3] of 30 nM and an EC50 [4] of 7100 nM were found for `O=C(O)c1ccc(CCC[C@H]2C(C(F)(F)F)C[C@@H](O)[C@@H]2C#Cc2ccccc2)s1` (single isomer, unassigned) [Example 23] in this work. For the same compound, the EC50 [5] was 79 nM.

A Ki [1] of 1440 nM, an EC50 [2] of 0.3 nM and a Ki [3] of 4 nM were found for `O=C(O)c1ccc(CCC[C@@H]2[C@@H](C#Cc3cccnc3)[C@H](O)C[C@H]2Cl)s1` [Example 31, 5-(3-((1R,2S,3R,5R)-5-chloro-3-hydroxy-2-(pyridin-3-ylethynyl)cyclopentyl)propyl)thiophene-2-carboxylic acid] in this work. It also gave an EC50 [5] of 2 nM and an EC50 [6] of 4200 nM.

A Ki [1] of 1790 nM, an EC50 [2] of 0.6 nM and a Ki [3] of 30 nM were found for `O=C(O)c1ccc(CCC[C@@H]2C(=O)C[C@@H](O)[C@@H]2C#Cc2ccccc2)s1` [Example 18, 5-(3-((1S,2S,3R)-3-hydroxy-5-oxo-2-(phenylethynyl)cyclopentyl)propyl)thiophene-2-carboxylic acid] in this work. It also gave an EC50 [5] of 22 nM and an EC50 [6] of 3220 nM.

A Ki [1] of 316 nM, an EC50 [2] of 0.08 nM and a Ki [3] of 0.3 nM were found for `CCc1cccc(C#C[C@@H]2[C@@H](CCCc3ccc(C(=O)O)s3)[C@H](Cl)C[C@H]2O)c1` [Example 26, 5-(3-((1R,2S,3R,5R)-5-chloro-2-((3-ethylphenyl)ethynyl)-3-hydroxycyclopentyl)propyl)thiophene-2-carboxylic acid] in this work. For the same compound, the EC50 [5] was 56 nM and the EC50 [6] was 616 nM.

A Ki [1] of 3500 nM, an EC50 [2] of 1.3 nM and a Ki [3] of 10 nM were found for `O=C(O)c1ccc(CCC[C@@H]2[C@@H](/C=C/c3cncc(Cl)c3)[C@H](O)C[C@H]2Cl)s1` [Example 3, 5-(3-((1R,2R,3R,5R)-5-chloro-2-((E)-2-(5-chloropyridin-3-yl)vinyl)-3-hydroxycyclopentyl)propyl)-thiophene-2-carboxylic acid] in this work. It also gave an EC50 [5] of 101 nM and an EC50 [6] of 15900 nM.

A Ki [1] of 86 nM, an EC50 [2] of 1.4 nM and a Ki [3] of 8 nM were found for `Cc1cc(C)cc(/C=C/[C@@H]2[C@@H](CCCc3ccc(C(=O)O)s3)[C@H](Cl)C[C@H]2O)c1` [Example 8, 5-(3-((1R,2R,3R,5R)-5-chloro-2-(3,5-dimethylstyryl)-3-hydroxycyclopentyl)propyl)thiophene-2-carboxylic acid] in this work. It also gave an EC50 [5] of 328 nM and an EC50 [6] of 10000 nM.

A Ki [1] of 193 nM, an EC50 [2] of 0.4 nM and a Ki [3] of 2 nM were found for `CCCc1cc(/C=C/[C@@H]2[C@@H](CCCc3ccc(C(=O)O)s3)[C@H](Cl)C[C@H]2O)ccn1` [Example 13, 5-(3-((1R,2R,3R,5R)-5-chloro-3-hydroxy-2-((E)-2-(2-propylpyridin-4-yl)vinyl)cyclopentyl)propyl)thiophene-2-113 carboxylic acid] in this work. For the same compound, the EC50 [5] was over 10000 nM and the EC50 [6] was over 10000 nM.

A Ki [1] of 8670 nM, an EC50 [2] of 7 nM and a Ki [3] of 79 nM were found for `O=C(O)c1ccc(CCC[C@@H]2[C@@H](C#Cc3ccncc3)[C@H](O)C[C@H]2Cl)s1` [Example 32, 5-(3-((1R,2S,3R,5R)-5-chloro-3-hydroxy-2-(pyridin-4-ylethynyl)cyclopentyl)propyl)thiophene-2-carboxylic acid] in this work. The EC50 [5] was 306 nM and the EC50 [6] was over 10000 nM.

A Ki [1] of 90 nM, an EC50 [2] of 0.1 nM and a Ki [3] of 1.4 nM were found for `C/C=C/c1cc(Cl)cc(/C=C/[C@@H]2[C@@H](CCCc3ccc(C(=O)O)s3)[C@H](Cl)C[C@H]2O)c1` [Example 10, 5-(3-((1R,2R,3R,5R)-5-chloro-2-((E)-3-chloro-5-((E)-prop-1-enyl)styryl)-3-hydroxycyclopentyl)propyl)thiophene-2-carboxylic acid] in this work. It also gave an EC50 [5] of 1640 nM and an EC50 [6] of over 10000 nM.

A Ki [1] of 466 nM, an EC50 [2] of 0.09 nM and a Ki [3] of under 0.08 nM were found for `O=C(O)c1ccc(CCC[C@@H]2[C@@H](C#Cc3cc(Cl)cc(Cl)c3)[C@H](O)C[C@H]2Cl)s1` [Example 25, 5-(3-((1R,2S,3R,5R)-5-chloro-2-((3,5-dichlorophenyl)ethynyl)-3-hydroxycyclopentyl)propyl)thiophene-2-carboxylic acid] in this work. For the same compound, the EC50 [5] was 133 nM and the EC50 [6] was 1910 nM.

A Ki [1] of 2140 nM, an EC50 [2] of 0.2 nM and a Ki [3] of 11 nM were found for `O=C(O)c1ccc(CCC[C@@H]2[C@@H](C#Cc3ccccn3)[C@H](O)C[C@H]2Cl)s1` [Example 30, 5-(3-((1R,2S,3R,5R)-5-chloro-3-hydroxy-2-(pyridin-2-ylethynyl)cyclopentyl)propyl)thiophene-2-carboxylic acid] in this work. It also gave an EC50 [5] of 3 nM and an EC50 [6] of over 10000 nM.

A Ki [1] of 162 nM, an EC50 [2] of 0.09 nM and a Ki [3] of 2.3 nM were found for `O=C(O)c1ccc(CCC[C@@H]2[C@@H](/C=C/c3cc(Cl)nc(Cl)c3)[C@H](O)C[C@H]2Cl)s1` [Example 4, 5-(3-((1R,2R,3R,5R)-5-chloro-2-((E)-2-(2,6-dichloropyridin-4-yl)vinyl)-3-hydroxycyclopentyl)propyl)-thiophene-2-carboxylic acid] in this work. The EC50 [5] was 44 nM and the EC50 [6] was 15900 nM.

A Ki [1] of 239 nM, an EC50 [2] of 12 nM and a Ki [3] of 24 nM were found for `C/C=C/c1cc(Cl)cc(/C=C\[C@@H]2[C@@H](CCCc3ccc(C(=O)O)s3)[C@H](Cl)C[C@H]2O)c1` [Example 11, 5-(3-((1R,2R,3R,5R)-5-chloro-2-((Z)-3-chloro-5-((E)-prop-1-enyl)styryl)-3-hydroxycyclopentyl)propyl)thiophene-2-carboxylic acid] in this work. It also gave an EC50 [5] of 2180 nM and an EC50 [6] of 6460 nM.

A Ki [1] of 436 nM, an EC50 [2] of 0.03 nM and a Ki [3] of 1 nM were found for `C=CCCc1cccc(C#C[C@@H]2[C@@H](CCCc3ccc(C(=O)O)s3)[C@H](Cl)C[C@H]2O)c1` [Example 27, 5-(3-((1R,2S,3R,5R)-2-((3-(but-3-enyl)phenyl)ethynyl)-5-chloro-3-hydroxycyclopentyl)propyl)thiophene-2-carboxylic acid] in this work. For the same compound, the EC50 [5] was 19 nM and the EC50 [6] was 11000 nM.

A Ki [1] of 1520 nM, an EC50 [2] of 0.22 nM and a Ki [3] of 2 nM were found for `O=C(O)c1ccc(CCC[C@@H]2[C@@H](C#Cc3cccc(CCCO)c3)[C@H](O)C[C@H]2Cl)s1` [Example 33, 5-(3-((1R,2S,3R,5R)-5-chloro-3-hydroxy-2-((3-(3-hydroxypropyl)phenyl)ethynyl)cyclopentyl)propyl)thiophene-2-carboxylic acid] in this work. The EC50 [6] was 8990 nM.
